Laboratory results: patent publication US4874856A, “3-(substituted)propenyl-7-(aminothiazolylacetamido) ceph-3-em-4-carboxylic acids and esters thereof” (Bristol-Myers Company, priority 1987, dated 1989)
Converted amounts (≈) assume the structure as drawn. Like-named read-outs stand apart in the source and are kept apart here.

Experiments:
Format in all cases: cell-based
[1] = test system: CETresistant E. coli (3) and K. pneumoniae (2); assay: In vitro MIC, two-fold serial agar dilution in Mueller-Hinton agar, GnIb strains; conditions: Escherichia coli, 5 strains, read-out: Geometric mean of MIC, GnIb
Experimental: (§1) The in vitro antibacterial activity of the parent cephalosporanic acids of Formula I wherein R^4 is hydrogen is shown in Table 1 in terms of geometric mean of the Minimum Inhibitory Concentrations (MIC's) which were determined by the two-fold serial agar dilution method in Mueller-Hinton agar against 25 strains of test organisms in five groups.
GnIb: CETresistant E. coli (3) and K. pneumoniae (2)

[2] = test system: Penicillin(PC)sensitive S. aureus; assay: In vitro MIC, two-fold serial agar dilution in Mueller-Hinton agar, Gp-Ia strains; conditions: Staphylococcus aureus; GpIa, 5 strains; read-out: Geometric mean of MIC, GpIa
Experimental: as §1
Gp-Ia: Penicillin(PC)sensitive S. aureus

PCresistant S. aureus = assay: In vitro MIC, two-fold serial agar dilution in Mueller-Hinton agar, GpIb strains; conditions: Staphylococcus aureus, 5 strains, read-out: Geometric mean of MIC, GpIb
Experimental: as §1
GpIb: PCresistant S. aureus

[3] = test system: M. morcanii (1), E. cloacae (2) and S. marcescens (2); assay: In vitro MIC, two-fold serial agar dilution in Mueller-Hinton agar, GnII strains; conditions: Enterobacter cloacae, read-out: Geometric mean of MIC, GnII
Experimental: as §1
GnII: M. morcanii (1), E. cloacae (2) and S. marcescens (2)

Providencia rettgeri = assay: In vitro MIC, Mueller-Hinton agar, inoculum 10^6 cells/ml
Text: (§2) Table 6 is a comparison of the in vitro antibacterial activities of Compound 29 and the vinyl homolog thereof FK-482 against clinically important pathogens. Thirty-seven organisms were more than 4-fold more susceptible to Compound 29 than to FK-482. FK-482 has the following formula and is described by Takaya, et al. in U.S. Pat. No. 4,559,334 patented Dec. 17, 1985 (filed Oct. 20, 1983). [drawing 14]
(§3) *; Geometric mean of MIC (μg/ml)
(§4) Mueller-Hinton agar Inoculum size; 10^6 cells/ml

Serratia marcescens = assay: as above
Text: as §2, §3, §4

Proteus mirabilis = assay: as above
Text: as §2, §3, §4

Proteus vulgaris = assay: as above
Text: as §2, §3, §4

Enterobacter cloacae = assay: as above
Text: as §2, §3, §4

Serratia species = assay: as above
Text: as §2, §3, §4

Morganella morganii = assay: as above
Text: as §2, §3, §4

Enterobacter aerogenes = assay: as above; conditions: Klebsiella aerogenes
Text: as §2, §3, §4

Citrobacter freundii = assay: as above
Text: as §2, §3, §4

## C/C=C\C1=C(C(=O)O)N2C(=O)[C@@H](NC(=O)/C(=N\O)c3csc(N)n3)[C@H]2SC1 [Compound 29, 7β-[(Z)-2-(2-aminothiazol-4-yl)-2-(hydroxyimino)acetamido]-3-[(Z)-prop-1-en-1-yl]-3-cephem-4-carboxylic acid]
[1]
  MIC: 0.35 µg/mL (≈ 0.855 µM)
[2]
  MIC: 0.2 µg/mL (≈ 0.488 µM)
PCresistant S. aureus
  MIC: 0.4 µg/mL (≈ 0.977 µM)
[3]
  MIC: 6.3 µg/mL (≈ 15.4 µM)
Providencia rettgeri; (GM) of the Providencia rettgeri strains, read-out: Geometric mean of MIC
  MIC: 0.015 µg/mL (≈ 0.0366 µM)
Providencia rettgeri; IFO3850, strain IFO 3850 MS-1, read-out: MIC
  MIC: < 0.0063 µg/mL
Providencia rettgeri; strain A 9637, read-out: MIC
  MIC: < 0.0063 µg/mL
Providencia rettgeri; strain A15167 (first line), read-out: MIC
  MIC: < 0.0063 µg/mL
Providencia rettgeri; strain A15167 (second line), read-out: MIC
  MIC: 0.013 µg/mL (≈ 0.0317 µM)
Providencia rettgeri; strain A20645, read-out: MIC
  MIC: 0.4 µg/mL (≈ 0.977 µM)
Providencia rettgeri; strain A20915, read-out: MIC
  MIC: 0.8 µg/mL (≈ 1.95 µM)
Providencia rettgeri; strain A20920, read-out: MIC
  MIC: < 0.0063 µg/mL
Providencia rettgeri; strain A20921, read-out: MIC
  MIC: < 0.0063 µg/mL
Providencia rettgeri; strain A21205, read-out: MIC
  MIC: 0.025 µg/mL (≈ 0.0611 µM)
Providencia rettgeri; strain A21270, read-out: MIC
  MIC: 0.025 µg/mL (≈ 0.0611 µM)
Serratia marcescens; (GM) of the Serratia marcescens strains, read-out: Geometric mean of MIC
  MIC: 13 µg/mL (≈ 31.7 µM)
Serratia marcescens; strain A20019, read-out: MIC
  MIC: 1.6 µg/mL (≈ 3.91 µM)
Serratia marcescens; strain A20222, read-out: MIC
  MIC: 3.1 µg/mL (≈ 7.57 µM)
Serratia marcescens; strain A20333, read-out: MIC
  MIC: > 50 µg/mL
Serratia marcescens; strain A20334, read-out: MIC
  MIC: > 50 µg/mL
Serratia marcescens; strain A20335, read-out: MIC
  MIC: 1.6 µg/mL (≈ 3.91 µM)
Serratia marcescens; strain A20336, read-out: MIC
  MIC: 3.1 µg/mL (≈ 7.57 µM)
Serratia marcescens; strain A20442, read-out: MIC
  MIC: 3.1 µg/mL (≈ 7.57 µM)
Serratia marcescens; strain A20459, read-out: MIC
  MIC: > 50 µg/mL
Serratia marcescens; strain A20460, read-out: MIC
  MIC: 12.5 µg/mL (≈ 30.5 µM)
Serratia marcescens; strain A20461, read-out: MIC
  MIC: > 50 µg/mL
Proteus mirabilis; (GM) of the Proteus mirabilis strains, read-out: Geometric mean of MIC
  MIC: 0.084 µg/mL (≈ 0.205 µM)
Proteus mirabilis; IFO3849, strain IFO 3849 MS-1, read-out: MIC
  MIC: 0.1 µg/mL (≈ 0.244 µM)
Proteus mirabilis; strain A 9554, read-out: MIC
  MIC: 0.1 µg/mL (≈ 0.244 µM)
Proteus mirabilis; strain A 9702, read-out: MIC
  MIC: 0.05 µg/mL (≈ 0.122 µM)
Proteus mirabilis; strain A 9716, read-out: MIC
  MIC: 0.1 µg/mL (≈ 0.244 µM)
Proteus mirabilis; strain A20119, read-out: MIC
  MIC: 0.05 µg/mL (≈ 0.122 µM)
Proteus mirabilis; strain A20342, read-out: MIC
  MIC: 0.1 µg/mL (≈ 0.244 µM)
Proteus mirabilis; strain A20454, read-out: MIC
  MIC: 0.1 µg/mL (≈ 0.244 µM)
Proteus mirabilis; strain A21222, read-out: MIC
  MIC: 0.1 µg/mL (≈ 0.244 µM)
Proteus vulgaris; (GM) of the Proteus vulgaris strains, read-out: Geometric mean of MIC
  MIC: 1 µg/mL (≈ 2.44 µM)
Proteus vulgaris; strain A 9436, read-out: MIC
  MIC: 0.1 µg/mL (≈ 0.244 µM)
Proteus vulgaris; strain A 9526, read-out: MIC
  MIC: 3.1 µg/mL (≈ 7.57 µM)
Proteus vulgaris; strain A 9699, read-out: MIC
  MIC: 1.6 µg/mL (≈ 3.91 µM)
Proteus vulgaris; strain AKH-26, read-out: MIC
  MIC: > 50 µg/mL
Proteus vulgaris; strain HX-19 MS-1, read-out: MIC
  MIC: 0.1 µg/mL (≈ 0.244 µM)
Proteus vulgaris; strain OX-19 MS-1, read-out: MIC
  MIC: 0.2 µg/mL (≈ 0.488 µM)
Enterobacter cloacae; (GM) of the Enterobacter cloacae strains, read-out: Geometric mean of MIC
  MIC: 17 µg/mL (≈ 41.5 µM)
Enterobacter cloacae; strain A 9655, read-out: MIC
  MIC: 50 µg/mL (≈ 122 µM)
Enterobacter cloacae; strain A 9659, read-out: MIC
  MIC: > 50 µg/mL
Enterobacter cloacae; strain A20344, read-out: MIC
  MIC: > 50 µg/mL
Enterobacter cloacae; strain A20364, read-out: MIC
  MIC: 3.1 µg/mL (≈ 7.57 µM)
Enterobacter cloacae; strain A20464, read-out: MIC
  MIC: 3.1 µg/mL (≈ 7.57 µM)
Enterobacter cloacae; strain A20650, read-out: MIC
  MIC: 0.8 µg/mL (≈ 1.95 µM)
Enterobacter cloacae; strain A22551, read-out: MIC
  MIC: > 50 µg/mL
Serratia species; (GM) of the Serratia species strains, read-out: Geometric mean of MIC
  MIC: 44 µg/mL (≈ 107 µM)
Serratia species; strain 6-330, read-out: MIC
  MIC: 3.1 µg/mL (≈ 7.57 µM)
Serratia species; strain 6-427, read-out: MIC
  MIC: 3.1 µg/mL (≈ 7.57 µM)
Serratia species; strain 6-920, read-out: MIC
  MIC: > 50 µg/mL
Serratia species; strain 7-255, read-out: MIC
  MIC: > 50 µg/mL
Serratia species; strain 7-454, read-out: MIC
  MIC: > 50 µg/mL
Serratia species; strain 7-2322, read-out: MIC
  MIC: > 50 µg/mL
Serratia species; strain 8-185, read-out: MIC
  MIC: > 50 µg/mL
Serratia species; strain 8-513, read-out: MIC
  MIC: 25 µg/mL (≈ 61.1 µM)
Serratia species; strain 8-785, read-out: MIC
  MIC: > 50 µg/mL
Serratia species; strain 8-1537, read-out: MIC
  MIC: 25 µg/mL (≈ 61.1 µM)
Serratia species; strain 9-50, read-out: MIC
  MIC: > 50 µg/mL
Serratia species; strain 9-690, read-out: MIC
  MIC: > 50 µg/mL
Morganella morganii; (GM) of the Morganella morganii strains, read-out: Geometric mean of MIC
  MIC: 6.3 µg/mL (≈ 15.4 µM)
Morganella morganii; IFO3843, strain IFO 3843 MS-1, read-out: MIC
  MIC: 1.6 µg/mL (≈ 3.91 µM)
Morganella morganii; strain A 9636, read-out: MIC
  MIC: > 50 µg/mL
Morganella morganii; strain A20455, read-out: MIC
  MIC: 1.6 µg/mL (≈ 3.91 µM)
Enterobacter aerogenes; (GM) of the Enterobacter aerogenes strains, read-out: Geometric mean of MIC
  MIC: 4.9 µg/mL (≈ 12 µM)
Enterobacter aerogenes; strain A20940, read-out: MIC
  MIC: > 50 µg/mL
Enterobacter aerogenes; strain A20941, read-out: MIC
  MIC: 1.6 µg/mL (≈ 3.91 µM)
Enterobacter aerogenes; strain A20943, read-out: MIC
  MIC: 0.8 µg/mL (≈ 1.95 µM)
Enterobacter aerogenes; strain A20958, read-out: MIC
  MIC: 6.3 µg/mL (≈ 15.4 µM)
Enterobacter aerogenes; strain A20961, read-out: MIC
  MIC: 3.1 µg/mL (≈ 7.57 µM)
Enterobacter aerogenes; strain A20966, read-out: MIC
  MIC: 6.3 µg/mL (≈ 15.4 µM)
Enterobacter aerogenes; strain A20971, read-out: MIC
  MIC: 1.6 µg/mL (≈ 3.91 µM)
Enterobacter aerogenes; strain A20985, read-out: MIC
  MIC: > 50 µg/mL
Enterobacter aerogenes; strain A20994, read-out: MIC
  MIC: 6.3 µg/mL (≈ 15.4 µM)
Enterobacter aerogenes; strain A20996, read-out: MIC
  MIC: 0.8 µg/mL (≈ 1.95 µM)
Enterobacter aerogenes; strain A21013, read-out: MIC
  MIC: 3.1 µg/mL (≈ 7.57 µM)
Enterobacter aerogenes; strain A21036, read-out: MIC
  MIC: > 50 µg/mL
Enterobacter aerogenes; strain A21037, read-out: MIC
  MIC: 0.4 µg/mL (≈ 0.977 µM)
Enterobacter aerogenes; strain A21038, read-out: MIC
  MIC: 0.8 µg/mL (≈ 1.95 µM)
Enterobacter aerogenes; strain A21039, read-out: MIC
  MIC: 6.3 µg/mL (≈ 15.4 µM)
Enterobacter aerogenes; strain A21043, read-out: MIC
  MIC: 12.5 µg/mL (≈ 30.5 µM)
Enterobacter aerogenes; strain A21044, read-out: MIC
  MIC: 25 µg/mL (≈ 61.1 µM)
Enterobacter aerogenes; strain A21118, read-out: MIC
  MIC: 50 µg/mL (≈ 122 µM)
Enterobacter aerogenes; strain A21120, read-out: MIC
  MIC: 6.3 µg/mL (≈ 15.4 µM)
Enterobacter aerogenes; strain A21130-1, read-out: MIC
  MIC: 6.3 µg/mL (≈ 15.4 µM)
Enterobacter aerogenes; strain A21131, read-out: MIC
  MIC: 0.8 µg/mL (≈ 1.95 µM)
Enterobacter aerogenes; strain A21152, read-out: MIC
  MIC: 0.8 µg/mL (≈ 1.95 µM)
Enterobacter aerogenes; strain A21155, read-out: MIC
  MIC: 3.1 µg/mL (≈ 7.57 µM)
Enterobacter aerogenes; strain A21158, read-out: MIC
  MIC: 6.3 µg/mL (≈ 15.4 µM)
Enterobacter aerogenes; strain A21503, read-out: MIC
  MIC: 3.1 µg/mL (≈ 7.57 µM)
Citrobacter freundii; (GM) of the Citrobacter freundii strains, read-out: Geometric mean of MIC
  MIC: 1.7 µg/mL (≈ 4.15 µM)
Citrobacter freundii; strain A21312, read-out: MIC
  MIC: > 50 µg/mL
Citrobacter freundii; strain A22140, read-out: MIC
  MIC: 1.6 µg/mL (≈ 3.91 µM)
Citrobacter freundii; strain A22141, read-out: MIC
  MIC: 1.6 µg/mL (≈ 3.91 µM)
Citrobacter freundii; strain A22142, read-out: MIC
  MIC: 0.8 µg/mL (≈ 1.95 µM)
Citrobacter freundii; strain A22160, read-out: MIC
  MIC: 0.8 µg/mL (≈ 1.95 µM)
Citrobacter freundii; strain A22161, read-out: MIC
  MIC: 0.8 µg/mL (≈ 1.95 µM)
Citrobacter freundii; strain A22166, read-out: MIC
  MIC: 0.8 µg/mL (≈ 1.95 µM)
Citrobacter freundii; strain A22175, read-out: MIC
  MIC: 0.8 µg/mL (≈ 1.95 µM)
Citrobacter freundii; strain A22176, read-out: MIC
  MIC: 0.8 µg/mL (≈ 1.95 µM)
Citrobacter freundii; strain A22177, read-out: MIC
  MIC: 3.1 µg/mL (≈ 7.57 µM)
